Data taken from PubChem BioAssay (NCI).
Values joined by “and” are separate entries in the source; they are usually repeats but may differ in a detail not shown here. Identical values can stand only once.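 Cultured in 96-well plates, cells were exposed to test compound for 48 hours across five concentrations. GI50 marks 50% less growth. The concentration for full growth arrest is given as TGI.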

Tests used:
Assay in all cases: DTP human tumour cell line panel, 48 h
HOP-92 NSCLC = test system: HOP-92 NSCLC
K-562 leukemia = test system: K-562 leukemia
SNB-19 CNS = test system: SNB-19 CNS
UACC-257 melanoma = test system: UACC-257 melanoma
SF-295 CNS = test system: SF-295 CNS
IGROV1 ovarian = test system: IGROV1 ovarian
HOP-62 NSCLC = test system: HOP-62 NSCLC
OVCAR-4 ovarian = test system: OVCAR-4 ovarian
NCI-H460 lung = test system: NCI-H460 lung
SF-539 CNS = test system: SF-539 CNS

SMILES	TGI (HOP-92 NSCLC)	TGI (K-562 leukemia)	TGI (SNB-19 CNS)	TGI (UACC-257 melanoma)	TGI (SF-295 CNS)	TGI (IGROV1 ovarian)	TGI (HOP-62 NSCLC)	TGI (OVCAR-4 ovarian)	TGI (NCI-H460 lung)	TGI (SF-539 CNS)	GI50 (HOP-92 NSCLC)	GI50 (K-562 leukemia)	GI50 (SNB-19 CNS)	GI50 (UACC-257 melanoma)	GI50 (SF-295 CNS)	GI50 (IGROV1 ovarian)	GI50 (HOP-62 NSCLC)	GI50 (OVCAR-4 ovarian)	GI50 (NCI-H460 lung)	GI50 (SF-539 CNS)
O=C(NC1=C(Cl)C(=O)c2ccccc2C1=O)C(=O)c1c(O)c2ccccc2oc1=O	32.3 µM	> 100 µM	16 µM	3.17 µM	9.58 µM	16.1 µM	18.8 µM	19.4 µM	7.68 µM	11.1 µM	–	–	–	–	–	–	–	–	–	–
Cn1cc(-c2csc(-c3ccc(Cl)cc3)n2)c2cccnc21	19.1 µM	38.3 µM	30.2 µM	43.5 µM	34.4 µM	> 100 µM	32.4 µM	60.8 µM	34.4 µM	29.5 µM	2.54 µM	12.9 µM	13.8 µM	19.9 µM	15.5 µM	22.3 µM	17.2 µM	21.9 µM	16 µM	14.8 µM
COc1ccc(/C=C(\C#N)c2cc(OC)c(OC)c(OC)c2)cc1	25.1 µM	> 100 µM	> 100 µM	> 100 µM	50.7 µM	> 100 µM	> 100 µM	> 100 µM	23.6 µM	> 100 µM	0.277 µM	< 0.01 µM	0.0558 µM	0.012 µM	< 0.0156 µM	0.0432 µM	< 0.0184 µM	0.0297 µM	0.0327 µM	0.0199 µM
COc1ccc(C(=O)c2ccccc2)c(O)c1	> 100 µM	> 100 µM	> 100 µM	> 100 µM	> 100 µM	> 100 µM	> 100 µM	> 100 µM	> 100 µM	> 100 µM	78.5 µM	91 µM	> 100 µM	> 100 µM	36 µM	> 100 µM	> 100 µM	> 100 µM	88.4 µM	> 100 µM
BrCc1ccc2ccc3ccc(CBr)nc3c2n1	4.04 µM	> 28.4 µM	19.5 µM	14.1 µM	28.6 µM	10.8 µM	21 µM	12.3 µM	20.2 µM	11 µM	–	–	–	–	–	–	–	–	–	–
O=C(NCCCN1CCN(CCCNC(=O)Nc2cc(Cl)ccc2Cl)CC1)Nc1cc(Cl)ccc1Cl	> 100 µM	> 100 µM	> 100 µM	34 µM	> 100 µM	> 100 µM	> 100 µM	> 100 µM	> 100 µM	> 100 µM	–	–	–	–	–	–	–	–	–	–
CC(=O)c1nc(-c2ccc(C[C@@H](CNC(=O)CN(C)C)NC(=O)c3ccc(OC(C)C)c(Cl)c3)cc2)cn1C	13.8 µM	12.9 µM	17.7 µM	24.3 µM	7.75 µM	21.9 µM	16.9 µM	22.9 µM	11.8 µM	3.03 µM	1.52 µM	< 0.0196 µM	0.0439 µM	9.58 µM	0.0338 µM	0.896 µM	0.0614 µM	0.842 µM	0.0291 µM	0.0341 µM
O=C(OCC1=CC(=O)c2ccccc2C1=O)c1ccccc1	34.9 µM	34.5 µM	22.4 µM	9.47 µM	20.5 µM	25.6 µM	29.6 µM	28.4 µM	6.19 µM	25.3 µM	20.2 µM	9.47 µM	10.3 µM	3.13 µM	6.41 µM	12.5 µM	14.4 µM	13.2 µM	1.99 µM	12.2 µM
Cc1c(-c2ccc(-c3ccccc3F)cc2)nc2ccc(F)cc2c1C(=O)O	88.6 µM	211 µM and 401 µM	164 µM and 513 µM	155 µM and 236 µM	43.6 µM and 48.6 µM and 210 µM	64.8 µM and 227 µM	35 µM and 199 µM	88.7 µM and 524 µM	80.9 µM and 174 µM	25.6 µM and 110 µM and 29.9 µM	27.7 µM	–	0.864 µM and 1.73 µM	–	0.163 µM and 1.37 µM	0.726 µM and 0.654 µM	0.5 µM	41 µM and 81.6 µM	0.349 µM and 0.5 µM	0.0959 µM and 0.5 µM
CCOC1=C/C(=N\Nc2ccc([N+](=O)[O-])cc2)CCC1	> 100 µM	> 100 µM	> 100 µM	> 100 µM	> 100 µM	40.7 µM	> 100 µM	> 100 µM	> 100 µM	> 100 µM	–	–	–	–	–	–	–	–	–	–
c1ccc(N2CCN(CCN3CCc4c([nH]c5ccccc45)C3c3cccnc3)CC2)cc1 (stereo not given)	92.5 µM	> 100 µM	> 100 µM	> 100 µM	> 100 µM	> 100 µM	> 100 µM	> 100 µM	> 100 µM	> 100 µM	–	–	–	–	–	–	–	–	–	–
Cc1nc(C(=O)OCc2ccccc2)cc(OCc2ccccc2)c1C	30.8 µM	36.8 µM	> 82.8 µM	38.3 µM	46.8 µM	47.7 µM	40.7 µM	33.6 µM	54.5 µM	35.2 µM	14.7 µM	8.8 µM	27.8 µM	18.8 µM	19.7 µM	21.4 µM	19.9 µM	11.8 µM	22.7 µM	18.1 µM
COc1cccc(C=NC23CC4CC(CC(C4)C2)C3)c1	> 100 µM	> 100 µM	> 100 µM	> 100 µM	> 100 µM	> 100 µM	> 100 µM	> 100 µM	> 100 µM	> 100 µM	–	–	–	–	–	–	–	–	–	–
CC(C)C(Br)C(=O)NCC(=O)O (stereo not given)	> 100 µM	> 100 µM	> 100 µM	> 100 µM	> 100 µM	> 100 µM	> 100 µM	> 100 µM	> 100 µM	> 100 µM	–	–	–	–	–	–	–	–	–	–
CCOC(=O)NN1C(=O)C(=P(c2ccccc2)(c2ccccc2)c2ccccc2)C(C(=O)OC)=C1C	> 100 µM	> 100 µM	> 100 µM	> 100 µM	> 100 µM	> 100 µM	> 100 µM	> 100 µM	> 100 µM	> 100 µM	–	–	–	–	–	–	–	–	–	–
O=S1(=O)CCC2=CC(C(F)(F)F)=CC(C(F)(F)F)=CN21	4.26 µM	6.61 µM	6.08 µM	5.76 µM	4.8 µM	3.66 µM	4.88 µM	4.24 µM	8.01 µM	3.8 µM	–	–	–	–	–	–	–	–	–	–
COc1ccc2c(CN3CCCC[C@H]3O)cc3cc4c(cc3c2c1)OCO4	2.4 µM	4.35 µM	7.45 µM	0.737 µM	2.81 µM	9.3 µM	3.52 µM	2.99 µM	10.4 µM	1.83 µM	0.241 µM	0.364 µM	0.445 µM	0.237 µM	0.354 µM	0.368 µM	0.541 µM	0.393 µM	0.295 µM	0.375 µM
CCCCC[C@H]1C/C=C2/C(=O)C=C[C@@H]2C/C=C\CCCC(=O)O1	2.18 µM	22 µM	7.45 µM	0.346 µM	0.298 µM	1.43 µM	0.341 µM	5.94 µM	5.38 µM	0.67 µM	0.577 µM	0.136 µM	0.479 µM	0.105 µM	0.123 µM	0.209 µM	0.129 µM	0.189 µM	0.156 µM	0.16 µM
O=C(Nc1ccccc1)N1C(c2ccccc2)=N[C@@H](c2ccccc2)[C@@H]1c1ccccc1	53.3 µM	50.9 µM	97.9 µM	35.3 µM	62.7 µM	53.4 µM	47.9 µM	44.6 µM	> 100 µM	33.7 µM	–	–	–	–	–	–	–	–	–	–
CN(Cc1cnc2nc(N)nc(N)c2n1)c1c(Cl)cc(C(=O)NC(CCC(=O)O)C(=O)O)cc1Cl (stereo not given)	> 100 µM	> 100 µM	> 100 µM	> 100 µM	–	> 100 µM	> 100 µM	> 100 µM	> 100 µM	> 100 µM	1.49 µM	< 0.01 µM	0.0395 µM	–	0.0156 µM	< 0.01 µM	0.0287 µM	–	< 0.01 µM	< 0.01 µM
CCN(CC)c1ccc(/C=N/N=C(N)N)cc1	13.5 µM	16.4 µM	23.8 µM	23.9 µM	15.8 µM	55.1 µM	21.3 µM	39.5 µM	15.1 µM	30.5 µM	2.27 µM	3.02 µM	3.57 µM	5.2 µM	3.59 µM	8.11 µM	4.65 µM	5.74 µM	3.57 µM	5.06 µM
Cc1nc(Nc2ccc(Cl)cc2)sc1C(=O)Nc1cccc2c(=O)[nH][nH]c(=O)c12	38.8 µM	47.3 µM	> 100 µM	> 100 µM	74.3 µM	83.5 µM	> 100 µM	> 100 µM	88.6 µM	> 100 µM	–	–	–	–	–	–	–	–	–	–
Cc1cccc(C=NC23CC4CC(CC(C4)C2)C3)c1	> 100 µM	> 100 µM	> 100 µM	> 100 µM	> 100 µM	> 100 µM	> 100 µM	> 100 µM	> 100 µM	> 100 µM	–	–	–	–	–	–	–	–	–	–
COC(=O)CCC(NC(=S)N/N=C(\C)c1cccs1)C(=O)OC (stereo not given)	> 100 µM	> 100 µM	> 100 µM	> 100 µM	> 100 µM	> 100 µM	> 100 µM	> 100 µM	> 100 µM	> 100 µM	–	–	–	–	–	–	–	–	–	–
O=C1C(=O)N(c2cc(Cl)ccc2Cl)C(=O)C(=O)C1c1nc2ccccc2s1	> 100 µM	> 100 µM	> 100 µM	> 100 µM	> 100 µM	> 100 µM	> 100 µM	> 100 µM	> 100 µM	> 100 µM	–	–	–	–	–	–	–	–	–	–
COc1ccc(-c2cn3ccnc3c(-c3ccc(Cl)cc3)n2)cc1	48.4 µM	> 100 µM	> 100 µM	48 µM	85.3 µM	> 100 µM	> 100 µM	> 100 µM	> 100 µM	58 µM	10.2 µM	4.01 µM	14.4 µM	6.81 µM	23.1 µM	7.46 µM	16.3 µM	5.61 µM	10.8 µM	8.97 µM
C/C(=N\NC(=S)N1CCCC1)c1ccccn1	7.98 µM	> 55.9 µM	14.7 µM	0.166 µM	5.9 µM	5.09 µM	13.8 µM	2.3 µM	7.06 µM	3.08 µM	0.0508 µM	< 0.01 µM	0.112 µM	< 0.01 µM	< 0.01 µM	< 0.01 µM	< 0.01 µM	< 0.01 µM	< 0.01 µM	< 0.0265 µM
O=C1C=C(NCCc2ccccc2)c2ccccc2C1=O	29.5 µM	20.4 µM	9.29 µM	2.93 µM	4.76 µM	21.3 µM	4.89 µM	13.4 µM	3.18 µM	4.46 µM	–	–	–	–	–	–	–	–	–	–
c1ccc(C2N=C(c3ccccn3)C(c3ccccn3)=NC2c2ccccc2)cc1 (stereo not given)	> 100 µM	> 100 µM	> 100 µM	> 100 µM	> 100 µM	> 100 µM	> 100 µM	> 100 µM	> 100 µM	> 100 µM	–	–	–	–	–	–	–	–	–	–
